Measured values from PubChem BioAssay AID179 (DTP/NCI, 2004).
Where “and” joins values, the source holds several entries; their conditions need not be identical. Identical values can stand only once. Calls of active or inactive are those of the source.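 How the source made its calls: active means compounds giving half or more protection of infected cells from virus-caused growth loss, again on retest; inactive means the rest.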

Tested on: CEM cells HIV-1 protection, formazan growth assay
Assay: NCI AIDS Antiviral Assay
Conditions: for IC50: measured here: growth of uninfected CEM cells
Method in brief: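 Human CEM cells, uninfected and HIV-1-infected, exposed to five drug concentrations; growth measured by soluble formazan assay and scored as percent protection from infection, with protecting compounds retested.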

| SMILES | EC50 | IC50 | outcome |
| --- | --- | --- | --- |
| CC(c1ccccc1)n1c2ccccc2c2c(N)ncnc21 (stereo unspecified) | > 200 µM | 17.8 µM |  |
| [O]=[Sb][c]1ccc(C(=O)O)cc1 | > 200 µM | 26.3 µM |  |
| COc1ccc(C(CC(=O)O)CC(=O)O)cc1[N+](=O)[O-] | > 200 µM | > 200 µM |  |
| O=C1NC(=O)C2C(=O)NC(=O)C1C2Cc1ccco1 (stereo unspecified) | > 955 µM | > 955 µM |  |
| Cc1cn(Cc2ccccc2CCO)c(=S)[nH]c1=O | > 912 µM | > 912 µM |  |
| CN(C)C(=S)/N=c1\ss/c(=N\S(=O)(=O)c2ccccc2)n1N(C)C |  |  | inactive |
| COC(=O)/N=c1\cc(N2CC=CCC2)nc(N)n1O | > 200 µM | > 200 µM |  |
| COc1ccc(/C=C2\CSC/C(=C\c3ccc(OC)c(OC)c3OC)C2=O)c(OC)c1OC | > 200 µM | 15.5 µM |  |
| O=C(O)CC/C(=N\Nc1nsc2ccccc12)c1ccccc1 | > 11.5 µM | 8.13 µM |  |
| COc1cc(/C=C2/SC(=S)NC2=O)cc(OC)c1O |  |  | inactive |
| CCOc1ccc(N2C(=O)/C(=C/c3ccc(N(CCC#N)CCC#N)cc3)N=C2c2cc([N+](=O)[O-])ccc2Cl)cc1 | > 33.1 µM | 21.4 µM |  |
| CC[n+]1c(/C=C/c2cc(C(=O)OC)n3c2sc2ccccc23)sc2ccccc21 | > 200 µM | 11 µM |  |
| CC(=O)NC(ON1C(=O)COc2ccccc21)C(Cl)(Cl)Cl (stereo unspecified) | > 100 µM | > 100 µM |  |
| Cc1nc2ccccc2c(=O)n1NC(=O)c1ccc([N+](=O)[O-])cc1 | > 200 µM | > 200 µM |  |
| COC1N(C2CC(N=[N+]=[N-])C(CO)O2)C(=O)NC(=O)C1(C)Br (stereo unspecified) | 0.00479 µM and 0.00263 µM and 0.0049 µM | 40.7 µM and 38.9 µM and 16.2 µM |  |
| CC(C)/C(Cl)=N\OC(=O)Nc1ccc(F)cc1F | > 200 µM | 7.24 µM |  |
| CCOC(=O)C(C)(C)Oc1ccc2c(-c3ccc(Cl)cc3)c(-c3ccc(Cl)cc3)c(=O)oc2c1 | > 7.59 µM | > 7.59 µM |  |
| Clc1cccc(-c2ccc[nH]2)c1 | > 200 µM | > 200 µM |  |
| Cn1c2ccccc2c(=O)c2c([N+](=O)[O-])ccc(NCCN)c21 |  |  | inactive |
| CCN(CC)c1c(C(=O)/C=C/c2ccc(F)cc2)c(-c2ccccc2)nn(C)c1=O | > 33.9 µM | 7.24 µM |  |
| COc1cc(N(CCC#N)CCC#N)ccc1/C(N=Nc1ccc(C)cc1)=N/NC(=O)c1cc(Br)ccc1O | > 200 µM | 12.6 µM |  |
| c1cc(-c2cn3c(n2)SCC3)ccn1 | > 437 µM | 182 µM |  |

| SMILES | EC50 | IC50 | outcome |
| --- | --- | --- | --- |
| COC(=O)/C(=C/c1ccc(OC)cc1)C(C(=O)O)=C1CCCC1 | > 158 µM |  |  |
| COc1c2occc2cc2ccc(=O)oc12 | > 83.2 µM | > 83.2 µM |  |
| COC(=O)/C=C(C)/C=C\COC1CCCCO1 (stereo unspecified) | > 200 µM | > 200 µM |  |
| CC(=O)O[C@H]1CC[C@H]2[C@@H]3CCC4C(C)=NNC(=O)C4[C@H]3CC[C@]12C (stereo partly specified) | > 200 µM | > 200 µM |  |
| OCC1OC(n2ccc3c2ncn2cnnc32)C(O)C1O (stereo unspecified) | > 309 µM | 29.5 µM |  |
| CC(C)/C(Cl)=N/OC(=O)Nc1cccc(C(F)(F)F)c1 | > 20 µM | 3.02 µM |  |
| C=CC(=O)N1C/C(=C\c2ccc(OC)cc2)C(=O)/C(=C/c2ccc(OC)cc2)C1 | 0.2 µM | 2.4 µM |  |
| CCCCCCCCCCC(=O)CCCCCCC(=O)O |  |  | inactive |
| CN(C)CC/C(=N\Nc1ccc(Cl)cc1)c1ccccc1 |  |  | inactive |
| COC1=CC(=O)C2C(C1=O)[C@@H]1c3ccccc3OC(C)(C)[C@H]21 (stereo partly specified) | > 166 µM | 16.2 µM |  |
| CC1Nc2c(ccc3ncccc23)C(=O)N1Nc1ccccc1 (stereo unspecified) | > 83.2 µM | 60.3 µM |  |
| COC(O)C(=O)c1ccc2c(c1)CC1(C2)Cc2cc3c(cc2C1=O)CCC3 (stereo unspecified) | > 200 µM | 32.4 µM |  |
| Cc1ccc(C(=O)Nc2ccc(CP(=O)(O)O)cc2)cc1NC(=O)c1cccc(NC(=O)Nc2cccc(C(=O)Nc3cc(C(=O)Nc4ccc(CP(=O)(O)O)cc4)ccc3C)c2)c1 | 16.6 µM | 50.1 µM |  |
| COc1ccc2c(c1)CCc1c(-c3noc4c3CCc3cc(OC)ccc3-4)noc1-2 | > 234 µM | > 234 µM |  |
| OC1C2[C@@H](O)CCCN2C[C@@H](O)[C@H]1O (stereo partly specified) | > 200 µM | > 200 µM |  |
| COc1cc(C2C(Cl)C(=O)N2NC(=O)c2ccccc2O)ccc1O (stereo unspecified) | > 27.5 µM | > 27.5 µM |  |
| COc1ccc(C(=O)CC(c2ccc(OC)c(OC)c2)c2c(O)c3ccccc3oc2=O)cc1OC (stereo unspecified) | > 200 µM | 117 µM |  |
| CC(=O)Oc1ccc(-c2oc3c([C@H]4C=C(C)CC(c5ccc(OC(C)=O)cc5OC(C)=O)[C@@H]4C(=O)c4ccc(OC(C)=O)c(CC=C(C)C)c4OC(C)=O)c(OC(C)=O)cc(O)c3c(=O)c2CC=C(C)C)c(OC(C)=O)c1 (stereo partly specified) | > 11.7 µM | 7.41 µM |  |
| CCC1(CC)C(=O)N(C(=O)c2ccc(C)cc2)N(C(=O)c2ccc(C)cc2)C1=O | > 200 µM | 20.4 µM |  |
| Cc1cc2c(c(=O)[nH]1)C(=O)NC2=O | > 813 µM | 468 µM |  |
| CC12CCCCC1CC(=O)/C(=C\O)C2 (stereo unspecified) | > 200 µM | 77.6 µM |  |
| CN(C)S(=O)(=O)N1C(=O)c2ccccc2C1=O | > 102 µM | > 102 µM |  |

| SMILES | EC50 | IC50 | outcome |
| --- | --- | --- | --- |
| CCCCCCCCCCCCC(Br)C(=O)SCCNC(=O)CCNC(=O)[C@@H](O)C(C)(C)COP(=O)(O)OP(=O)(O)OCC1OC(n2cnc3c(N)ncnc32)C(O)C1OP(=O)(O)O (stereo partly specified) |  |  | inactive |
| CCC1(O)CC2CC(=O)OC2C1O (stereo unspecified) | > 200 µM | > 200 µM |  |
| CCOC(=O)C1(C)CCCC1N (stereo unspecified) | > 200 µM | > 200 µM |  |
| CCCCCCCCCCCC1CN=C(CCCCC2=NCC(CCCCCCCCCCC)N2)N1 (stereo unspecified) | > 7.08 µM | > 7.08 µM |  |
| CCOc1cc2c(=O)oc3c(OC)ccc4ccc(c1OC)c2c43 |  |  | inactive |
| Cc1cc(-c2ccc(N=Nc3c(N)c(S(=O)(=O)O)cc4cc(S(=O)(=O)O)ccc34)c(C)c2)ccc1N=Nc1c(N)ccc2cc(S(=O)(=O)O)ccc12 |  |  | active |
| O=C(O)[C@@H](NS(=O)(=O)c1ccc([N+](=O)[O-])cc1)c1ccccc1 |  |  | inactive |
| O=C(Cc1ccccc1)NNc1nc(NNC(=O)c2ccncc2)nc(Nc2cccc(Cl)c2)n1 | > 200 µM | > 200 µM |  |
| COC(=O)CC(=O)OC1C[C@@H]2CCC3C(C)(C)CCC[C@]3(C)C23CC[C@@]1(C)C3 (stereo partly specified) | > 18.2 µM | > 18.2 µM |  |
| NC(N)=NCCC(O)(P(=O)(O)O)P(=O)(O)O | > 200 µM | > 200 µM |  |
| Cc1[nH]ccc2c1[nH]c1cc(=O)ccc12 | > 1070 µM | 16.6 µM |  |
| COc1cc(C(SCc2ccccc2)SCc2ccccc2)ccc1O | > 200 µM | 34.7 µM |  |
| CCc1nnc(CC)n1NCCCC(=O)O | > 200 µM | > 200 µM |  |
| c1ccc(-c2nc3c(N4CCOCC4)ncnc3o2)cc1 | > 25.7 µM | > 25.7 µM |  |
| CN1C(=O)C(O)(C2=C3OCOC3=CC(=O)C2=O)c2ccccc21 (stereo unspecified) | > 200 µM | 32.4 µM |  |
| CC(C)(C)OC(=O)NC(Cc1ccccc1)C(=O)OCN1C(=O)C2C3C=CC(C2C1=O)C1C2C(=O)N(COC(=O)C(Cc4ccccc4)NC(=O)OC(C)(C)C)C(=O)C2C31 (stereo unspecified) | > 100 µM | 15.5 µM |  |
| Cn1ccnc1Sc1c([N+](=O)[O-])ncn1C | > 1050 µM | 7.94 µM |  |
| Nc1nc(Cl)cc(NCC2(CO)CCC(O)C2)n1 (stereo unspecified) | > 200 µM | > 200 µM |  |
| CCCC1(CCC)c2cc(/C=N\O)ccc2-c2ccc(-c3ccc(C(C)(C)C)cc3)cc21 | > 200 µM | 37.2 µM |  |
| Cc1cn(C2CC(F)C(COC(=O)CCCCCCCCCCCN=[N+]=[N-])O2)c(=O)[nH]c1=O (stereo unspecified) | 0.000631 µM | 2 µM |  |
| COc1ccc(CCN(C)CCC[C@](C#N)(c2ccc(OC)c(OC)c2)C(C)C)cc1OC | > 200 µM | 38.9 µM |  |
| Cc1ccc2c3c4c(ccc13)C(C)(C)OC4=C(C(C)C)C2=O | > 200 µM | 15.8 µM |  |

| SMILES | EC50 | IC50 | outcome |
| --- | --- | --- | --- |
| O=C1N/C(=N\N=C\c2ccccc2)C2(CCCCC2)O1 | > 200 µM | 97.7 µM |  |
| Cc1nc2ccccc2c(=O)n1-c1ccccc1F | > 708 µM | 437 µM |  |
| NC(=O)C(=CN1CC(=O)NC1=S)C(N)=O | > 200 µM | > 200 µM |  |
| CC(=O)Nc1ccc(/C=C/C(=O)c2sc(-c3nc(C)c(C(=O)/C=C/c4ccc(NC(C)=O)cc4)s3)nc2C)cc1 | > 33.1 µM | > 33.1 µM |  |
| BrC1CCCCCC(Br)C12OCCO2 (stereo unspecified) | > 57.5 µM | > 57.5 µM |  |
| O=C1/C(=C/c2ccc(Br)cc2)CCC/C1=C\c1ccc(Br)cc1 | > 6.31 µM | > 6.31 µM |  |
| COc1ccc(O[C@H](CO)C[C@@H]2COC(C)(C)O2)cc1 | > 200 µM | > 200 µM |  |
| CC1(C)CCC(C)(C)c2cc(C(=O)Nc3ccc(C(=O)O)cc3)ccc21 |  | 115 µM | inactive |
| CN=c1nc2sc3c(c2c(NC(=S)NC)s1)CCCC3 | 77.6 µM | > 200 µM |  |
| Cc1ccc(S(=O)(=O)SCc2ccccc2CSS(=O)(=O)c2ccc(C)cc2)cc1 |  |  | inactive |
| O=c1c(C=Nc2ccccc2Cl)c(O)n(-c2ccccc2)c(=O)n1-c1ccccc1 |  |  | inactive |
| Cn1c(=O)n2n(c1=O)C1C=CC2C2C=C(c3ccccc3)C21 (stereo unspecified) |  |  | inactive |
| CC/C(Cl)=N\OC(=O)NCc1ccc(F)cc1 | > 20 µM | 4.47 µM |  |
| CC(C)COC(=O)c1ccc(N=Cc2ccc(C=Nc3ccc(C(=O)OCC(C)C)cc3)cc2)cc1 | > 10.7 µM | > 10.7 µM |  |
| CCCC1(N)CC(OC)OC(C)C1O (stereo unspecified) | > 200 µM | > 200 µM |  |
| CN1NC(=O)SC(=O)c2ccccc2C1=O |  |  | inactive |
| O=C(Nc1ccc(-c2cccs2)oc1=O)c1cnccn1 | > 151 µM | > 151 µM |  |
| CCOc1ccc(NCC(=O)N2CC(=O)Nc3ccccc32)cc1 | > 22.4 µM | > 22.4 µM |  |
| CC(CCc1nc2ccccc2o1)C1CCC2C3CC[C@@H]4C[C@H](O)CC[C@]4(C)C3C[C@H](O)[C@]12C (stereo partly specified) | > 50.1 µM | 7.24 µM |  |
| COC(=O)c1c(C)oc2ccc(OC(C)=O)cc12 |  |  | inactive |
| O=c1cc(-c2ccccc2)oc2cc(Oc3nnnn3-c3ccccc3)ccc12 | > 200 µM | 42.7 µM |  |
| COC(=O)c1ccc(OCCn2nnc(C(=O)NN)c2C(=O)NN)cc1 | > 100 µM | > 100 µM |  |
